Experimental findings from patent US8664226B2, “Compound having 3-heteroarylpyrimidin-4-(3H)-one structure and pharmaceutical preparation containing same” (Kowa Company, Ltd., priority 2009, dated 2014) are described below.

Broadly, the IC50 is the point on the concentration scale where inhibition reaches its midpoint. Higher therefore signals lower potency. A word on the EC50: it is the concentration that produces a half-maximal response.

Where only a bound is given, the exact number is not on record here.

The target in test [1] is T1, angiotensin II type 1 receptor (Oryctolagus cuniculus, UniProt P34976).
T1 construct: By using a specimen of isolated rabbit blood vessels; from tissue; host or cells: rabbit thoracic aorta ring (New Zealand White, male)
T1 sequence (P34976 1-359): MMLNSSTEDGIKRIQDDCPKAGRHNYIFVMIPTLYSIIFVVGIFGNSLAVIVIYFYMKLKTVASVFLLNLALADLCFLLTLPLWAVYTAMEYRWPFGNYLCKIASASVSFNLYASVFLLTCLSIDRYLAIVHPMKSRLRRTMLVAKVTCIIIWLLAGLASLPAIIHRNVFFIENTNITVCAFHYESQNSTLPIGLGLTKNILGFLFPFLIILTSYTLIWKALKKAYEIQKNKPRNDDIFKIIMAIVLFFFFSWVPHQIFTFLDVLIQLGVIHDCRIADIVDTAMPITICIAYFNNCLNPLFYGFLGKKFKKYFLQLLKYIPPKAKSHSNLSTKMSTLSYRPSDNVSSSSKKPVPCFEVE
Put plainly: Angiotensin II antagonistic activity in isolated rabbit blood vessels. The conditions noted are these: angiotensin II (10 nM)-induced contraction of rabbit thoracic aorta ring. How it is done:
By using a specimen of isolated rabbit blood vessels, antagonistic activity of the compounds of the invention against angiotensin II type 1 receptor was estimated from a dose-response curve of angiotensin II-induced blood vessel contraction.
During the measurement, the inside temperature of the magnus bath was maintained at 37° C. and the bath was continuously ventilated with a sufficient amount of mixed gas (95% O2 and 5% CO2). The angiotensin II-induced contraction was converted into a relative value (%) that is based on the angiotensin II (10 nM)-induced contraction in the absence of the compounds of each example. From the concentration-response curve obtained therefrom, 50% inhibition concentration (IC50 value) was calculated by using SAS Preclinical Package Ver5.0 (trade name, manufactured by SAS institute Japan Co., Tokyo, Japan), which is a statistical analysis program.

Another test concerns the target T2, human PPARγ2 (Homo sapiens, UniProt P37231).
T2 construct: the amino acids 182 to 505 of human PPARγ2; expressed in transfected cells; host or cells: COS7 cells
Put plainly: PPARγ activation activity, Gal4 chimera luciferase transfection assay using COS7 cells. The format is cell-based. The conditions noted are these: for EC50 / Emax: COS7 cells; for EC50: Gal4-human PPARγ2 LBD chimera, luciferase reporter, 16 hours, read-out: EC50; for Emax: COS-7, 16 h, maximum activity strength relative to the maximum activity of rosiglitazone, read-out: % MAX vs Rosiglitazone; for maximum activity compared with telmisartan: maximum PPARγ activity, telmisartan 30 to 50% of rosiglitazone under the same condition. How it is done:
The agonistic activity of the compounds of the invention on PPARγ was measured based on the transfection assay using COS7 cells (DS Pharma Biomedical Co., Ltd., Osaka, Japan), which are the cell line derived from the kidney of the African green monkey. COS7 cells were cultured under 5% CO2 concentration, and DMEM medium containing 10% fetal bovine serum, glutamic acid, and antibiotics was used as a medium.
As an expression vector, a chimera in which DNA binding domain of Gal4, which is a yeast transcription factor, and ligand binding domain of human PPAR^γ2 are fused, i.e., a fused product between the amino acids 1 to 147 of Gal4 transcription factor and the amino acids 182 to 505 of human PPARγ2, was used. Furthermore, as a reporter vector, a firefly luciferase containing five copies of Gal4 recognition sequence in the promoter region was used. Plasmid transfection to the cells was performed according to a method which uses jetPEI (trade name, manufactured by Funakoshi Co., Ltd., Tokyo, Japan). Furthermore, β-galactosidase expression vector was employed as an internal standard.
After the transfection of the cells, the medium was replaced with a DMEM medium (containing 1% serum) added with the compound, and the cells were further cultured for 16 hours. After that, the luciferase activity and β-galactosidase activity in the cell lysis solution were measured.
For the present test, dimethyl sulfoxide (DMSO) was used for dissolution and dilution of the test compounds, and during the cell treatment, the DMSO concentration in DMEM medium (containing 1% serum) was adjusted to 0.1%. As a positive compound, rosiglitazone (trade name, manufactured by ALEXIS Corporation, Switzerland) was used. […] The 50% effective concentration of the test compound (EC50, 50% effect concentration) was calculated by using SAS Preclinical Package Ver5.0 (trade name, manufactured by SAS institute Japan Co., Tokyo, Japan), which is a statistical analysis program.
For orientation: In a reporter assay the amount or activity of a reporter protein is the signal.

T2 sequence (P37231 182-505): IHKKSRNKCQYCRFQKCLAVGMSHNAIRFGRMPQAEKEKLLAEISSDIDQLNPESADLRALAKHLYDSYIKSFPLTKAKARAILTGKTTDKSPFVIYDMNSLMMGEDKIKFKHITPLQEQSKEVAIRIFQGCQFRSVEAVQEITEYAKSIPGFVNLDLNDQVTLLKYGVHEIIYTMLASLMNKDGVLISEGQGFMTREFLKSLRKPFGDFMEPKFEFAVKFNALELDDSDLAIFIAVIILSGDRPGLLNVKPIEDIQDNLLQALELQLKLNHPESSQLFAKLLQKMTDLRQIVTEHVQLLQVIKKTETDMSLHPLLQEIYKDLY
T2 sequence (P04386 1-147 partner limits assumed): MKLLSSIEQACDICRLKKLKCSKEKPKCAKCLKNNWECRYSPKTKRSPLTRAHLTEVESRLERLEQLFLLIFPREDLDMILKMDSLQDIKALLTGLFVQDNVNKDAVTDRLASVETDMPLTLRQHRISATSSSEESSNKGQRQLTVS

On to `CCCCc1nc(C)n(-c2ccnn2C)c(=O)c1Cc1ccc(-c2ccccc2-c2nnn[nH]2)cc1` [Example 64, 5-{[2′-(1H-tetrazol-5-yl)biphenyl-4-yl]methyl}-6-butyl-2-methyl-3-(1-methyl-1H-pyrazol-5-yl)pyrimidin-4 (3H)-one], for which the midpoint of inhibition in test [1], the IC50, lay at 652 nM. Besides, at human PPARγ2, the concentration giving a half-maximal response (EC50) amounted to 3300 nM.
The compound `CCCCc1nc(C)n(-c2ccc3ccccc3n2)c(=O)c1Cc1ccc(-c2ccccc2-c2nnn[nH]2)cc1` [Example 66, 5-{[2′-(1H-tetrazol-5-yl)biphenyl-4-yl]methyl}-6-butyl-2-methyl-3-(quinolin-2-yl)pyrimidin-4 (3H)-one] had an IC50 in test [1] of 432 nM. Also, on human PPARγ2, the EC50 was determined as 820 nM, the Emax was determined as 55.5% and the “maximum activity compared with telmisartan” value is on record as “the same or greater than that of telmisartan”.
Regarding `CCCCc1nc(C)n(-c2ncc(OCCCC(N)=O)cn2)c(=O)c1Cc1ccc(-c2ccccc2-c2nnn[nH]2)cc1` [Example 47, 4-{2-{5-{[2′-(1H-tetrazol-5-yl)biphenyl-4-yl]methyl}-4-butyl-2-methyl-6-oxopyrimidin-1(6H)-yl}pyrimidin-5-yloxy}butanamide], 2.6 nM corresponded to half-maximal inhibition in test [1] (IC50). Also, the EC50 at human PPARγ2 is 80 nM.
In the same order, the values of `CCCCc1nc(C)n(-c2ncc(OCc3ccccc3)cn2)c(=O)c1Cc1ccc(-c2ccccc2-c2nnn[nH]2)cc1` [Example 19, 5-{[2′-(1H-tetrazol-5-yl)biphenyl-4-yl]methyl}-3-[5-(benzyloxy)pyrimidin-2-yl]-6-butyl-2-methylpyrimidin-4 (3H)-one] are 396 nM and 2550 nM.
In turn, `CCCCc1nc(C)n(-c2ccc(Cl)cn2)c(=O)c1Cc1ccc(-c2ccccc2-c2nnn[nH]2)cc1` [Example 7, 5-{[2′-(1H-tetrazol-5-yl)biphenyl-4-yl]methyl}-6-butyl-3-(5-chloropyridin-2-yl)-2-methylpyrimidin-4(3H)-one] gave a 50% inhibitory concentration (IC50) in test [1] of 431 nM. At human PPARγ2, the half-maximal effective concentration (EC50) was determined as 1520 nM, the Emax is 54.6% and the “maximum activity compared with telmisartan” value is given as “the same or greater than that of telmisartan”.
On to `CCCCc1nc(C)n(-c2ncc(C(F)(F)F)cc2Cl)c(=O)c1Cc1ccc(-c2ccccc2-c2nnn[nH]2)cc1` [Example 13, 5-{[2′-(1H-tetrazol-5-yl)biphenyl-4-yl]methyl}-6-butyl-3-[3-chloro-5-(trifluoromethyl)pyridin-2-yl]-2-methylpyrimidin-4(3H)-one], for which it took 26 nM to reach half-maximal inhibition in test [1] (IC50). In addition, on human PPARγ2, the EC50 amounted to 170 nM.
The compound `CCCCc1nc(C)n(-c2ccon2)c(=O)c1Cc1ccc(-c2ccccc2-c2nnn[nH]2)cc1` [Example 63, 5-{[2′-(1H-tetrazol-5-yl)biphenyl-4-yl]methyl}-6-butyl-3-(isoxazol-3-yl)-2-methylpyrimidin-4 (3H)-one] registered a concentration for half-maximal inhibition (IC50) in test [1] of 193 nM. Besides, the half-maximal effective concentration (EC50) at human PPARγ2 worked out at 3670 nM.
In the same order, the values of `CCCCOc1cnc(-n2c(C)nc(CCCC)c(Cc3ccc(-c4ccccc4-c4nnn[nH]4)cc3)c2=O)nc1` [Example 24, 5-{[2′-(1H-tetrazol-5-yl)biphenyl-4-yl]methyl}-3-(5-butoxypyrimidin-2-yl)-6-butyl-2-methylpyrimidin-4 (3H)-one] are 141 nM and 860 nM.
In the case of `CCCCc1nc(C)n(-c2nc3ccccc3n2C)c(=O)c1Cc1ccc(-c2ccccc2-c2nnn[nH]2)cc1` [Example 69, 5-{[2′-(1H-tetrazol-5-yl)biphenyl-4-yl]methyl}-6-butyl-2-methyl-3-(1-methyl-1H-benzimidazol-2-yl)pyrimidin-4 (3H)-one], in test [1], the half-maximal inhibitory concentration (IC50) worked out at 958 nM. Moreover, at human PPARγ2, the half-maximal effective concentration (EC50) is 2690 nM and the Emax worked out at 31.6%.
The compound `CCCCc1nc(C)n(-c2nccs2)c(=O)c1Cc1ccc(-c2ccccc2-c2nnn[nH]2)cc1` [Example 62, 5-{[2′-(1H-tetrazol-5-yl)biphenyl-4-yl]methyl}-6-butyl-2-methyl-3-(thiazol-2-yl)pyrimidin-4 (3H)-one] showed a concentration for half-maximal inhibition (IC50) in test [1] of 435 nM. The concentration for a half-maximal effect (EC50) at human PPARγ2 was 3390 nM.
Regarding `CCCCc1nc(C)n(-c2ccc(OC)cn2)c(=O)c1Cc1ccc(-c2ccccc2-c2nnn[nH]2)cc1` [Example 3, 5-{[2′-(1H-tetrazol-5-yl)biphenyl-4-yl]methyl}-6-butyl-3-(5-methoxypyridin-2-yl)-2-methylpyrimidin-4(3H)-one], it took 18 nM to reach half-maximal inhibition in test [1] (IC50). Besides, the half-maximal effective concentration (EC50) at human PPARγ2 is 3740 nM.
In test [1], `CCCCc1nc(C)n(-c2ccc(F)cn2)c(=O)c1Cc1ccc(-c2ccccc2-c2nnn[nH]2)cc1` [Example 5, 5-{[2′-(1H-tetrazol-5-yl)biphenyl-4-yl]methyl}-6-butyl-3-(5-fluoropyridin-2-yl)-2-methylpyrimidin-4(3H)-one] registered a half-maximal inhibitory concentration (IC50) of 102 nM. Moreover, on human PPARγ2, the concentration giving a half-maximal response (EC50) is 3660 nM and the Emax worked out at 27.6%.
`CCCCc1nc(C)n(-c2nccc3ccccc23)c(=O)c1Cc1ccc(-c2ccccc2-c2nnn[nH]2)cc1` [Example 67, 5-{[2′-(1H-tetrazol-5-yl)biphenyl-4-yl]methyl}-6-butyl-3-(isoquinolin-1-yl)-2-methylpyrimidin-4 (3H)-one]: the 50% inhibitory concentration (IC50) in test [1] was < 10000 nM. In addition, at human PPARγ2, the half-maximal effective concentration (EC50) came out at 740 nM.
`CCCCc1nc(C)n(-c2ncc(OCCCNS(=O)(=O)C(F)(F)F)cn2)c(=O)c1Cc1ccc(-c2ccccc2-c2nnn[nH]2)cc1` [Example 58, N-{3-{2-{5-{[2′-(1H-tetrazol-5-yl)biphenyl-4-yl]methyl}-4-butyl-2-methyl-6-oxopyrimidin-1 (6H)-yl}pyrimidin-5-yloxy}propyl}-1,1,1-trifluoromethane sulfonamide]: in test [1], inhibition was half-maximal at 352 nM (IC50). The concentration for a half-maximal effect (EC50) on human PPARγ2 turned out to be 1910 nM.
In the same order, the values of `CCCCc1nc(C)n(-c2cc(C(F)(F)F)ccn2)c(=O)c1Cc1ccc(-c2ccccc2-c2nnn[nH]2)cc1` [Example 10, 5-{[2′-(1H-tetrazol-5-yl)biphenyl-4-yl]methyl}-6-butyl-2-methyl-3-[4-(trifluoromethyl)pyridin-2-yl]pyrimidin-4(3H)-one] are 181 nM and 3890 nM.
The compound `CCCCc1nc(C)n(-c2ncc(OCCSC)cn2)c(=O)c1Cc1ccc(-c2ccccc2-c2nnn[nH]2)cc1` [Example 26, 5-{[2′-(1H-tetrazol-5-yl)biphenyl-4-yl]methyl}-6-butyl-2-methyl-3-{5-[2-(methylthio)ethoxy]pyrimidin-2-yl}pyrimidin-4 (3H)-one] displayed an IC50 in test [1] of 24 nM. Moreover, the half-maximal effective concentration (EC50) on human PPARγ2 was 3890 nM.
In test [1], `CCCCc1nc(C)n(-c2ncc(OCCCC(=O)N(CC)CC)cn2)c(=O)c1Cc1ccc(-c2ccccc2-c2nnn[nH]2)cc1` [Example 52, 4-{2-{5-{[2′-(1H-tetrazol-5-yl)biphenyl-4-yl]methyl}-4-butyl-2-methyl-6-oxopyrimidin-1(6H)-yl}pyrimidin-5-yloxy}-N,N-diethylbutanamide] came in with an IC50 of 8.3 nM. The 50% effective concentration (EC50) on human PPARγ2 was 140 nM.
In the same order, the values of `CCCCc1nc(C)n(-c2ncc(OC(C(=O)O)c3ccccc3)cn2)c(=O)c1Cc1ccc(-c2ccccc2-c2nnn[nH]2)cc1` (stereo not drawn) [Example 42, 2-{2-{5-{[2′-(1H-tetrazol-5-yl)biphenyl-4-yl]methyl}-4-butyl-2-methyl-6-oxopyrimidin-1(6H)-yl}pyrimidin-5-yloxy}-2-phenylacetic acid] are 2.7 nM and 4220 nM.
